Literature values, collected in patent US20010014678A1, “Nicotine addiction treatment” (CARY MEDICAL CORPORATION, priority 1997, published 2001).

SMILES: CN1CCCC1c1cccnc1 (centres unmarked) [nicotine]
- metabolic half-life (in vivo): roughly 2 hours
- nicotine in venous blood (provided by one cigarette): 5 to 30 ng/mL
